The experiment has as its target T1, human DGAT2 (hDGAT2) (Homo sapiens, UniProt Q96PD7).
T1 construct: made in house; host or cells: Sf-9 insect cells (baculovirus), membrane fraction
T1 sequence (Q96PD7 1-388): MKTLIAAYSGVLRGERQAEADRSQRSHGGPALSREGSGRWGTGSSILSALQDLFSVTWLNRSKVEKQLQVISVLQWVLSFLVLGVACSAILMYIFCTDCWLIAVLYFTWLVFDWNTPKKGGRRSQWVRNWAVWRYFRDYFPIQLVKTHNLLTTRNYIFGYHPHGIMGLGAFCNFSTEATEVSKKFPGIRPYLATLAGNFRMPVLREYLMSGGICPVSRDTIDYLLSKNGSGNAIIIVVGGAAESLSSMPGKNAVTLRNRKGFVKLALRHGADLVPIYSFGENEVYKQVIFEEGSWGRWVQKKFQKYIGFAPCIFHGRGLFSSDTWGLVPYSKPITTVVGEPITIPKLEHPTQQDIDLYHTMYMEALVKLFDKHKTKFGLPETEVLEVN
The experiment is described as follows: DGAT2 Enzymatic Activity Assay. The experiment is classed as biochemical. Conditions: membrane prep of Sf-9 cells expressing hDGAT2, 25 μM diolein, 5 μM 13C oleoyl-CoA, 13C18-triolein by LC/MS/MS. In short, it runs like this: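 Membranes from Sf-9 cells expressing untagged human DGAT2 (8 ng/μL) incubated at rt in 100 mM Tris·Cl pH 7.0, 20 mM MgCl2, 5% ethanol with 25 μM diolein and 5 μM 13C oleoyl-CoA. 13C18-triolein product quantified by LC/MS/MS against 13C21-triolein internal standard; IC50 by 4-parameter fit.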

Read-outs that look alike come from different tables or passages of the source.

As to `CC(n1c(=O)n(-c2cc(OC(F)F)ccc2F)c2ccc(C(=O)NC3(C)CCS(=O)(=O)CC3)cc21)C(C)(C)O` (single isomer, unassigned) [Example 66a, 1-(5-(difluoromethoxy)-2-fluorophenyl)-3-(3-hydroxy-3-methylbutan-2-yl)-N-(4-methyl-1,1-dioxidotetrahydro-2H-thiopyran-4-yl)-2-oxo-2,3-dihydro-1H-benzo[d]imidazole-5-carboxamide], under “read-out: DGAT2 IC50”, the IC50 was determined as 1.1 nM. For the molecule `CCC(C)n1c(=O)n(-c2cccc(OC(F)F)c2)c2ccc(C(=O)NC3(C)CS(=O)(=O)C3)cc21` (single isomer, unassigned) [Example 46b, 3-(sec-butyl)-1-(3-(difluoromethoxy)phenyl)-N-(3-methyl-1,1-dioxidothietan-3-yl)-2-oxo-2,3-dihydro-1H-benzo[d]imidazole-5-carboxamide], where the note is “read-out: DGAT2 IC50”, the IC50 turned out to be 92 nM.

On to `CC(C)n1c(=O)n(-c2cccc(OC(F)(F)F)c2)c2ncc(C(=O)NC3(C)CCS(=O)(=O)CC3)cc21` [Example 92, 1-isopropyl-N-(4-methyl-1,1-dioxo-thian-4-yl)-2-oxo-3-[3-(trifluoromethoxy)phenyl]imidazo[4,5-b]pyridine-6-carboxamide], for which, for the setting “read-out: DGAT2 IC50”, the IC50 was 236 nM. Regarding `CC(C)n1c(=O)n(-c2cccc(C3CC3)c2)c2ccc(C(=O)NC3(C)CS(=O)(=O)C3)cc21` [Example 13, 1-(3-cyclopropylphenyl)-3-isopropyl-N-(3-methyl-1,1-dioxo-thietan-3-yl)-2-oxo-benzimidazole-5-carboxamide], the IC50 (read-out: Human DGAT2 IC50) amounted to 17 nM.

As to `CC(C)n1c(=O)n(-c2cccc(OC(F)(F)F)c2)c2ccc(C(=O)NC3(C)CCS(=O)(=O)CC3)cc21` [Example 10, 3-isopropyl-N-(4-methyl-1,1-dioxo-thian-4-yl)-2-oxo-1-[3-(trifluoromethoxy)phenyl]benz-imidazole-5-carboxamide], the half-maximal inhibitory concentration (IC50) (read-out: Human DGAT2 IC50) was 153 nM.

As to `CCOc1cccc(-n2c(=O)n(C(C)C)c3cc(C(=O)NC4(C)CS(=O)(=O)C4)ccc32)c1` [Example 9, 1-(3-ethoxyphenyl)-3-isopropyl-N-(3-methyl-1,1-dioxo-thietan-3-yl)-2-oxo-benzimidazole-5-carboxamide], the IC50 (read-out: Human DGAT2 IC50) came to 4.3 nM. For the molecule `CC(C)n1c(=O)n(-c2cccc(C(F)(F)F)c2)c2ccc(C(=O)NC3(C)CCS(=O)(=O)CC3)cc21` [Example 53, 3-isopropyl-N-(4-methyl-1,1-dioxidotetrahydro-2H-thiopyran-4-yl)-2-oxo-1-(3-(trifluoromethyl)phenyl)-2,3-dihydro-1H-benzo[d]imidazole-5-carboxamide], the IC50 (read-out: DGAT2 IC50) was found to be 1830 nM. As for `CCOc1cc(-n2c(=O)n(C(C)C)c3cc(C(=O)NC4(C)CS(=O)(=O)C4)c(F)cc32)c(F)cn1` [Example 116, 1-(2-ethoxy-5-fluoropyridin-4-yl)-6-fluoro-3-isopropyl-N-(3-methyl-1,1-dioxidothietan-3-yl)-2-oxo-2,3-dihydro-1H-benzo[d]imidazole-5-carboxamide], the concentration for half-maximal inhibition (IC50) (read-out: DGAT2 IC50) was determined as 93 nM. With `CC(n1c(=O)n(-c2cc(OC(F)(F)F)ccc2F)c2cc(F)c(C(=O)NC3(C)CCS(=O)(=O)CC3)cc21)C(C)(C)O` (single isomer, unassigned) [Example 70a, 6-fluoro-1-(2-fluoro-5-(trifluoromethoxy)phenyl)-3-(3-hydroxy-3-methylbutan-2-yl)-N-(4-methyl-1,1-dioxidotetrahydro-2H-thiopyran-4-yl)-2-oxo-2,3-dihydro-1H-benzo[d]imidazole-5-carboxamide], the 50% inhibitory concentration (IC50) (read-out: DGAT2 IC50) came out at 1 nM.

Consider `CC(=O)Nc1ccc(-n2c(=O)n(C(C)C)c3cc(C(=O)NC4(C)CS(=O)(=O)C4)ccc32)cc1O` [Example 47, 1-(4-acetamido-3-hydroxyphenyl)-3-isopropyl-N-(3-methyl-1,1-dioxidothietan-3-yl)-2-oxo-2,3-dihydro-1H-benzo[d]imidazole-5-carboxamide], for which, where the note is “read-out: DGAT2 IC50”, the IC50 is over 10000 nM.

As to `CCOc1cc(-n2c(=O)n(C(C)C)c3cc(C(=O)NC4(C)CCS(=O)(=O)CC4)ccc32)c(F)cn1` [Example 15, 1-(2-Ethoxy-5-fluoropyridin-4-yl)-3-isopropyl-N-(4-methyl-1,1-dioxidotetrahydro-2H-thiopyran-4-yl)-2-oxo-2,3-dihydro-1H-benzo[d]imidazole-5-carboxamide], the IC50 (read-out: Human DGAT2 IC50) is 6.7 nM. Turning to `CC(C)Oc1cccc(-n2c(=O)n(C(C)C)c3cc(C(=O)NC4(C)CCS(=O)(=O)CC4)cnc32)c1` [Example 101, 3-(3-isopropoxyphenyl)-1-isopropyl-N-(4-methyl-1,1-dioxo-thian-4-yl)-2-oxo-imidazo[4,5-b]pyridine-6-carboxamide], for the setting “read-out: DGAT2 IC50”, the IC50 came out at 506 nM. In the case of `CC(C)n1c(=O)n(-c2cc(OC(F)F)ccc2F)c2ccc(C(=O)N[C@]3(C)CCS(=O)(=O)C3)cc21` [Example 82, (R)-1-(5-(Difluoromethoxy)-2-fluorophenyl)-3-isopropyl-N-(3-methyl-1,1-dioxidotetrahydrothiophen-3-yl)-2-oxo-2,3-dihydro-1H-benzo[d]imidazole-5-carboxamide], the IC50 (read-out: Human DGAT2 IC50) stood at 5.7 nM. Same read-out and setting: as for `CC1(NC(=O)c2ccc3c(c2)n(-c2ccc(F)cc2)c(=O)n3-c2cccc(OC(F)F)c2)CS(=O)(=O)C1` [Example 2, 1-(3-(difluoromethoxy)phenyl)-3-(4-fluorophenyl)-N-(3-methyl-1,1-dioxidothietan-3-yl)-2-oxo-2,3-dihydro-1H-benzo[d]imidazole-5-carboxamide], the figure is 1.8 nM. On to `CC(C)n1c(=O)n(-c2cccc(OC(F)F)c2)c2cc(F)c(C(=O)N[C@@]3(C)CCS(=O)(=O)C3)cc21` [Example 114, (S)-1-(3-(Difluoromethoxy)phenyl)-6-fluoro-3-isopropyl-N-(3-methyl-1,1-dioxidotetrahydrothiophen-3-yl)-2-oxo-2,3-dihydro-1H-benzo[d]imidazole-5-carboxamide], for which, for the setting “read-out: DGAT2 IC50”, the IC50 was 80 nM.

As for `CC(C)n1c(=O)n(-c2cc(OC(F)F)ccc2F)c2ccc(C(=O)NC3(C)CCS(=O)(=O)CC3)cc21` [Example 79, 1-(5-(Difluoromethoxy)-2-fluorophenyl)-3-isopropyl-N-(4-methyl-1,1-dioxidotetrahydro-2H-thiopyran-4-yl)-2-oxo-2,3-dihydro-1H-benzo[d]imidazole-5-carboxamide], the IC50 (read-out: Human DGAT2 IC50) worked out at 2.1 nM. As for `CC(C)n1c(=O)n(-c2cccc(OC(F)F)c2)c2ccc(C(=O)NC3(C)CC(F)(F)C3)cc21` [Example 33, 1-[3-(difluoromethoxy)phenyl]-N-(3,3-difluoro-1-methyl-cyclobutyl)-3-isopropyl-2-oxo-benzimidazole-5-carboxamide], where the note is “read-out: DGAT2 IC50”, the IC50 was 182 nM. Take `CC(C)n1c(=O)n(-c2cccc(OC(F)F)c2)c2cnc(C(=O)NC3(C)CS(=O)(=O)C3)cc21` [Example 105, 3-(3-(difluoromethoxy)phenyl)-1-isopropyl-N-(3-methyl-1,1-dioxidothietan-3-yl)-2-oxo-2,3-dihydro-1H-imidazo[4,5-c]pyridine-6-carboxamide]: the IC50 (read-out: Human DGAT2 IC50) worked out at 1800 nM.

Take `CC(n1c(=O)n(-c2cccc(OC(F)(F)C(F)F)c2)c2ccc(C(=O)NC3(C)CCS(=O)(=O)CC3)cc21)C(C)(C)O` (single isomer, unassigned) [Example 77a, 3-(3-hydroxy-3-methylbutan-2-yl)-N-(4-methyl-1,1-dioxidotetrahydro-2H-thiopyran-4-yl)-2-oxo-1-(3-(1,1,2,2-tetrafluoroethoxy)phenyl)-2,3-dihydro-1H-benzo[d]imidazole-5-carboxamide]: the IC50 (read-out: DGAT2 IC50) was determined as 5.6 nM. For the molecule `CC(n1c(=O)n(-c2cccc(OC(F)(F)C(F)F)c2)c2ccc(C(=O)NC3(C)CS(=O)(=O)C3)cc21)C(C)(C)O` (single isomer, unassigned) [Example 76a, 3-(3-hydroxy-3-methylbutan-2-yl)-N-(3-methyl-1,1-dioxidothietan-3-yl)-2-oxo-1-(3-(1,1,2,2-tetrafluoroethoxy)phenyl)-2,3-dihydro-1H-benzo[d]imidazole-5-carboxamide], for the setting “read-out: DGAT2 IC50”, the IC50 was determined as 80 nM. In the case of `CC(C)n1c(=O)n(-c2cncc(C3CC3)c2)c2ccc(C(=O)NC3(C)CS(=O)(=O)C3)cc21` [Example 84, 1-(5-Cyclopropylpyridin-3-yl)-3-isopropyl-N-(3-methyl-1,1-dioxidothietan-3-yl)-2-oxo-2,3-dihydro-1H-benzo[d]imidazole-5-carboxamide], the half-maximal inhibitory concentration (IC50) (read-out: Human DGAT2 IC50) turned out to be 71 nM. On the same count and under the same terms, the same measure for `CC(C)n1c(=O)n(-c2cccc(OC(F)F)c2)c2ccc(C(=O)N[C@@]3(C)CCS(=O)(=O)C3)c(F)c21` [Example 124, (S)-1-(3-(Difluoromethoxy)phenyl)-4-fluoro-3-isopropyl-N-(3-methyl-1,1-dioxidotetrahydrothiophen-3-yl)-2-oxo-2,3-dihydro-1H-benzo[d]imidazole-5-carboxamide]: 191 nM.

`CC(n1c(=O)n(-c2cccc(OCC(F)F)c2)c2ccc(C(=O)NC3(C)CCS(=O)(=O)CC3)cc21)C(C)(C)O` (single isomer, unassigned) [Example 68b, 1-(3-(2,2-difluoroethoxy)phenyl)-3-(3-hydroxy-3-methylbutan-2-yl)-N-(4-methyl-1,1-dioxidotetrahydro-2H-thiopyran-4-yl)-2-oxo-2,3-dihydro-1H-benzo[d]imidazole-5-carboxamide]: for the setting “read-out: DGAT2 IC50”, the IC50 was found to be 1.8 nM.

Values taken from US11976061B2, “Preparation of benzimidazolone derivatives as novel diacylglyceride O-acyltransferase 2 inhibitors” (Merck Sharp & Dohme LLC, priority 2020, dated 2024).
